According to PMC8069214, “Synthesis, Biological Evaluation, and Molecular Modeling of Aza-Crown Ethers” (Molecules, 2021):

Target: T1, FPR2 (Homo sapiens, UniProt P25090)
T1 construct: expressed in transfected cells
T1 sequence (P25090 1-351): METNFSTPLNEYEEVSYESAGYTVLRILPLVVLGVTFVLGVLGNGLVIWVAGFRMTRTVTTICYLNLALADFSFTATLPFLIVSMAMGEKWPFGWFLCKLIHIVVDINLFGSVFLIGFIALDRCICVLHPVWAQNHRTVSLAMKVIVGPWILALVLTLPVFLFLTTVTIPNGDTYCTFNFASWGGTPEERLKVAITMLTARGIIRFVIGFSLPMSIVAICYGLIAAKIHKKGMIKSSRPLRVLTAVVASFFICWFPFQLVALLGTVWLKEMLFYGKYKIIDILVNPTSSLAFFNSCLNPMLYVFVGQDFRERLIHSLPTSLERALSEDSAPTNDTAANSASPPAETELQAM
Experiment: Inhibition of WKYMVM-induced [Ca2+]i flux in FPR2-HL60 cells
Assay type: cell-based
Details: 10 min preincubation, 5 nM WKYMVM; N.A. = no activity at < 50 µM; read-out: FPR1/FPR2 Agonist-Induced Δ[Ca^2+]i FPR2-HL60 IC50
Procedure: (§1) Since these compounds elevated neutrophil [Ca^2+]i, and cytosolic Ca^2+ flux is a key component of neutrophil activation, we evaluated if they could alter neutrophil activation by FPR1 or FPR2 agonists. Neutrophils and FPR-transfected HL60 cells were preincubated for 10 min with crown ether compounds, and [Ca^2+]i flux was stimulated with either an FPR1 agonist (fMLF for human neutrophils and FPR1-HL60 cells) or an FPR2 agonist (WKYMVM for FPR2-HL60 cells).
(§2) Human promyelocytic leukemia HL60 cells stably transfected with FPR1 (FPR1-HL60 cells) or FPR2 (FPR2-HL60 cells) (kind gifts from Dr. Marie-Josephe Rabiet, INSERM, Grenoble, France) were cultured in RPMI 1640 medium supplemented with 10% heat-inactivated fetal calf serum, 10 mM HEPES, 100 μg/mL streptomycin, 100 U/mL penicillin, and G418 (1 mg/mL). Although stable cell lines are cultured under G418 selection pressure, G418 may affect some assays, so it was removed in the last round of culture before assays were performed.
(§3) Changes in neutrophil intracellular Ca^2+ concentrations ([Ca^2+]i) were measured with a FlexStation 3 scanning fluorometer (Molecular Devices, Sunnyvale, CA, USA). Briefly, human neutrophils were suspended in HBSS^−, loaded with Fluo-4AM at a final concentration of 1.25 μg/mL, and incubated for 30 min in the dark at 37 °C. After dye loading, the cells were washed with HBSS^−, resuspended in HBSS^+, separated into aliquots, and loaded into the wells of flat-bottom, half-area well black microtiter plates (2 × 10^5 cells/well). To assess the direct effects of test compounds on Ca^2+ flux, the compounds were added to the wells (final concentration of DMSO was 1%), and changes in fluorescence were monitored (λex = 485 nm, λem = 538 nm) every 5 s for 240 s at room temperature after addition of the test compound. To evaluate inhibitory effects of the compounds on FPR1/FPR2-dependent Ca^2+ flux, the compounds were added to the wells (final concentration of DMSO was 1%) with cells (human neutrophils or FPR1/FPR2 HL60 cells). The samples were preincubated for 10 min, followed by addition of 5 nM fMLF (for human neutrophils or FPR1-HL60 cells) or 5 nM WKYMVM (for FPR2-HL60 cells). The maximum change in fluorescence, expressed in arbitrary units over baseline, was used to determine the agonist response. Responses were normalized to the response induced by 5 nM fMLF or 5 nM WKYMVM, which were assigned as 100%. Curve fitting (at least five or six points) and calculation of median effective concentration values (EC50 or IC50) were performed by nonlinear regression analysis of the dose–response curves generated using Prism 7 (GraphPad Software, Inc., San Diego, CA, USA). Efficacy was determined by comparing individual responses activated by the test compounds to that induced by a positive control (5 nM fMLF), which was assigned a value of 100%.

IC50 | Compound
36.4 ± 5.6 µM | O=C(N1CCOCCOc2ccccc2OCCOCC1)C12CC3CC(CC(C3)C1)C2 [Compound 10, N-[1-Oxo-1-(1-adamantyl)methyl]benzoaza-15-crown-5]
29.1 ± 3.2 µM | O=C(CC12CC3CC(CC(C3)C1)C2)N1CCOCCOc2ccccc2OCCOCC1 [Compound 11, N-[2-(1-adamantyl)acetyl]benzoaza-15-crown-5]

System: not given
Experiment: not given
Details: not given

melting point | Compound
111 to 113 °C | O=C(N1CCOCCOc2ccccc2OCCOCC1)C12CC3CC(CC(C3)C1)C2 [Compound 10, N-[1-Oxo-1-(1-adamantyl)methyl]benzoaza-15-crown-5]
141 to 142 °C | O=C(CC12CC3CC(CC(C3)C1)C2)N1CCOCCOc2ccccc2OCCOCC1 [Compound 11, N-[2-(1-adamantyl)acetyl]benzoaza-15-crown-5]

System: human neutrophils
Experiment: Inhibition of fMLF-induced [Ca2+]i flux in human neutrophils
Assay type: cell-based
Details: Neutrophil, 10 min preincubation, 5 nM fMLF, N.A. = no activity at < 50 µM, read-out: FPR1/FPR2 Agonist-Induced Δ[Ca^2+]i Neutrophils IC50
Procedure: as §1, §3

IC50 | Compound
11.2 ± 2.7 µM | O=C(N1CCOCCOc2ccccc2OCCOCC1)C12CC3CC(CC(C3)C1)C2 [Compound 10, N-[1-Oxo-1-(1-adamantyl)methyl]benzoaza-15-crown-5]
9.4 ± 0.6 µM | O=C(CC12CC3CC(CC(C3)C1)C2)N1CCOCCOc2ccccc2OCCOCC1 [Compound 11, N-[2-(1-adamantyl)acetyl]benzoaza-15-crown-5]

System: human neutrophils
Experiment: Ca2+ mobilization assay, direct effect of compounds on [Ca2+]i
Assay type: cell-based
Details: Homo sapiens, Neutrophil, % of the response induced by 5 nM fMLF; read-out: Efficacy (converted)
Text: We screened 24 aza- and diaza-crown ethers with adamantyl, adamantylalkyl, aminomethylbenzoyl, and ε-aminocaproyl substituents for their Ca^2+ ionophore effects in human neutrophils. To monitor cytoplasmic Ca^2+ levels, we used the fluorescent Ca^2+ indicator Fluo-4, which is a dynamic single-wavelength fluorescent Ca^2+ indicator. Increases in fluorescence intensity (λex = 485 nm, λem = 538 nm) reflect the rise in cytoplasmic Ca^2+ concentrations ([Ca^2+]i; see Materials and Methods).
as §3

Compound | Emax
O=C(N1CCOCCOc2ccccc2OCCOCC1)C12CC3CC(CC(C3)C1)C2 [Compound 10, N-[1-Oxo-1-(1-adamantyl)methyl]benzoaza-15-crown-5] | 25 to 50%
O=C(CC12CC3CC(CC(C3)C1)C2)N1CCOCCOc2ccccc2OCCOCC1 [Compound 11, N-[2-(1-adamantyl)acetyl]benzoaza-15-crown-5] | 25 to 50%

Same assay, conditions: Homo sapiens, Neutrophil; elevation of [Ca2+]i, Fluo-4; N.A. = no activity was found at concentration < 50 µM; read-out: EC50, effect on [Ca^2+]i flux in human neutrophils

EC50 | Compound
9.7 ± 2.6 µM | O=C(N1CCOCCOc2ccccc2OCCOCC1)C12CC3CC(CC(C3)C1)C2 [Compound 10, N-[1-Oxo-1-(1-adamantyl)methyl]benzoaza-15-crown-5]
15.6 ± 4.4 µM | O=C(CC12CC3CC(CC(C3)C1)C2)N1CCOCCOc2ccccc2OCCOCC1 [Compound 11, N-[2-(1-adamantyl)acetyl]benzoaza-15-crown-5]

Same assay, conditions: Neutrophil; reciprocal of EC50 in human neutrophils; inactive compounds assigned zero; read-out: 1/[EC50] (converted)

EC50 | Compound
9.7 µM | O=C(N1CCOCCOc2ccccc2OCCOCC1)C12CC3CC(CC(C3)C1)C2 [Compound 10, N-[1-Oxo-1-(1-adamantyl)methyl]benzoaza-15-crown-5]
15.6 µM | O=C(CC12CC3CC(CC(C3)C1)C2)N1CCOCCOc2ccccc2OCCOCC1 [Compound 11, N-[2-(1-adamantyl)acetyl]benzoaza-15-crown-5]

Target: T2, FPR1 (Homo sapiens, UniProt P21462)
T2 construct: expressed in transfected cells
T2 sequence (P21462 1-350): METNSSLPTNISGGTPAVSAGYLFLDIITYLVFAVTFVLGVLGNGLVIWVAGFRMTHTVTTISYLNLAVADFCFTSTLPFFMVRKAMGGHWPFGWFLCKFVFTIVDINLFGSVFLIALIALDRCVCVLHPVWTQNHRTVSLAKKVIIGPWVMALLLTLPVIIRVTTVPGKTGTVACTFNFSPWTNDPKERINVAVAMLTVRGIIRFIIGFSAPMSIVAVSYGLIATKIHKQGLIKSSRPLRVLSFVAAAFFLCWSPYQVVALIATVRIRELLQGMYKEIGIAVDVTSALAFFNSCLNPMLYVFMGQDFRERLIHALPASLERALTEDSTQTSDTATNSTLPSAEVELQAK
Experiment: Inhibition of fMLF-induced [Ca2+]i flux in FPR1-HL60 cells
Assay type: cell-based
Details: 10 min preincubation, 5 nM fMLF; N.A. = no activity at < 50 µM; read-out: FPR1/FPR2 Agonist-Induced Δ[Ca^2+]i FPR1-HL60 IC50
Procedure: as §1, §2, §3

IC50 | Compound
12.2 ± 1.9 µM | O=C(N1CCOCCOc2ccccc2OCCOCC1)C12CC3CC(CC(C3)C1)C2 [Compound 10, N-[1-Oxo-1-(1-adamantyl)methyl]benzoaza-15-crown-5]

System: human neutrophils
Experiment: fMLF-induced neutrophil chemotaxis (ChemoTx chambers)
Assay type: cell-based
Details: 1 h, 1 nM fMLF, 60 min migration
Procedure: Human neutrophils were suspended in HBSS^+ containing 2% (v/v) heat-inactivated fetal bovine serum (2 × 10^6 cells/mL), and effects of the compounds on fMLF-induced chemotaxis was analyzed in 96-well ChemoTx chemotaxis chambers (Neuroprobe, Gaithersburg, MD, USA). In brief, neutrophils were preincubated with the indicated concentrations of the test compounds or DMSO for 20 min at room temperature and added to the upper wells of the ChemoTx chemotaxis chambers. The lower wells were loaded with 30 µL of HBSS^+ containing 2% (v/v) fetal bovine serum and the indicated concentrations of test sample plus 1 nM fMLF, DMSO (negative control), or 1 nM fMLF as a positive control. Neutrophils were added to the upper wells and allowed to migrate through the 5.0-µm pore polycarbonate membrane filter for 60 min at 37 °C and 5% CO2. The number of migrated cells was determined by measuring ATP in lysates of transmigrated cells using a luminescence-based assay (CellTiter-Glo; Promega, Madison, WI, USA), and luminescence measurements were converted to absolute cell numbers by comparison of the values with standard curves obtained with known numbers of neutrophils. Curve fitting (at least eight to nine points) and calculation of median effective concentration values (IC50) were performed by nonlinear regression analysis of the dose-response curves generated using Prism 5.

IC50 | Compound
12.8 ± 5.3 µM | O=C(CC12CC3CC(CC(C3)C1)C2)N1CCOCCOc2ccccc2OCCOCC1 [Compound 11, N-[2-(1-adamantyl)acetyl]benzoaza-15-crown-5]
